According to patent US5985910A, “3- [4- (2- Phenyl-Indole-1-ylmethyl) Phenyl]- Acrylamides as estrogenic agents” (priority 1997, dated 1999):

Experiments:
[1] = test system: Ishikawa cells; assay: Ishikawa Cell Alkaline Phosphatase Assay; format: cell-based, human; details: for % Activation (Compound ± 1 nM 17β-estradiol) (alkaline phosphatase): 10^-6 M compound + 1 nM 17β-estradiol, 48 h (antiestrogen test); for % Activation (alkaline phosphatase): compound alone, 48 h, percent of response related to 1 nM 17β-estradiol
Experimental: Ishikawa Cell Alkaline Phosphatase Assay
(§1) Cell Maintenance and Treatment
Ishikawa cells were maintained in DMEM/F12 (50%:50%) containing phenol red+10% fetal bovine serum and the medium was supplemented with 2 mM Glutamax, 1% Pen/Strap and 1 mM sodium pyruvate. Five days prior to the beginning of each experiment (treatment of cells) the medium was changed to phenol red-free DMEM/F12+10% dextran coated charcoal stripped serum. On the day before treatment, cells were harvested using 0.5% trypsin/EDTA and plated at a density of 5×10^4 cells/well in 96-well tissue culture plates. […] Cells were treated for 48 h prior to assay. […] Sample population for at each dose was n=8.
Alkaline Phosphatase Assay
At the end of 48 h the media is aspirated and cells are washed three times with phosphate buffered saline (PBS). 50 μL of lysis buffer (0.1 M Tris-HCl, pH 9.8, 0.2% Triton X-100) is added to each well. Plates are placed at -80° C. for a minimum of 15 minutes. Plates are thawed at 37° C. followed by the addition of 150 μL of 0.1 M Tris-HCl, pH 9.8, containing 4 mM para-nitrophenylphosphate (pNPP) to each well (final concentration, 3 mM pNPP).
Absorbance and slope calculations were made using the KineticCalc Application program (Bio-Tek Instruments, Inc., Winooski, Vt.). Results are expressed as the mean +/-S.D. of the rate of enzyme reaction (slope) averaged over the linear portion of the kinetic reaction curve (optical density readings every 5 minutes for 30 minutes absorbance reading).
Various compounds were assayed for estrogenic activity by the alkaline phosphatase method and corresponding ED50 values (95% C.I.) were calculated. The four listed in the following were used as reference standards:
A description of such methods is provided by Holinka, C. F., Hata, H., Kuramoto, H. and Gurpide, E. (1986) Effects of steroid hormones and antisteroids on alkaline phosphatase activity in human endometrial cancer cells (Ishikawa Line). Cancer Research, 46:2771-2774, and by Littlefield, B. A., Gurpide, E., Markiewicz, L., McKinley, B. and by Hochberg, R. B. (1990) A simple and sensitive microtiter plate estrogen bioassay based on stimulation alkaline phosphatase in Ishikawa cells; Estrogen action of D5 adrenal steroids. Endocrinology, 6:2757-2762.

[2] = target: T1, estrogen receptor (Homo sapiens, UniProt P03372); assay: In Vitro Estrogen Receptor Binding Assay ([3H]-17β-estradiol competition, cytosol of CHO cells overexpressing the estrogen receptor); design: made in house; host or cells: CHO cells overexpressing the receptor; 100,000 g cytosol
T1 sequence (P03372 1-595): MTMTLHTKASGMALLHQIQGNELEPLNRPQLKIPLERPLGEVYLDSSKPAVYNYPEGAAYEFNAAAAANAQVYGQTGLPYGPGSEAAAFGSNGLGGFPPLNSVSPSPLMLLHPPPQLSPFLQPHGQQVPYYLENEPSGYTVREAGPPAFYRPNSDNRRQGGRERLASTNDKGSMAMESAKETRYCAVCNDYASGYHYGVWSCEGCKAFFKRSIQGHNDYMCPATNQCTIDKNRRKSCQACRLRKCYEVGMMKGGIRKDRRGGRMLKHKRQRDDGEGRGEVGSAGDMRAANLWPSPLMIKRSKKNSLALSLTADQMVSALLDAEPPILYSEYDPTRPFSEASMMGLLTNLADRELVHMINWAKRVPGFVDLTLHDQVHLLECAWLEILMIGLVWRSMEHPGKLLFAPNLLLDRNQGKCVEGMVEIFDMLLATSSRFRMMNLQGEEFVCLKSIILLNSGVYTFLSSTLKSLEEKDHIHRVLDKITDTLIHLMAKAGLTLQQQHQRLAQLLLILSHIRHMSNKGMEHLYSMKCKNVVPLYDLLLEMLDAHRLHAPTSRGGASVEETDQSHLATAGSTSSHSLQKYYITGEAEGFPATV
Experimental: In Vitro Estrogen Receptor Bonding Assay
CHO cells overexpressing the estrogen receptor were grown in 150 mm^2 dishes in DMEM+10% dextran coated charcoal, stripped fetal bovine serum. The plates were washed twice with PBS and once with 10 mM Tris-HCl, pH 7.4, 1 mM EDTA. Cells were harvested by scraping the surface and then the cell suspension was placed on ice. Cells were disrupted with a hand-held motorized tissue grinder using two, 10-second bursts. […] The cytosol was then frozen and stored at -80° C. Protein concentration of the cytosol was estimated using the BCA assay with reference standard protein.
100 uG/100 uL of the receptor preparation was aliquoted per well. […] The plate was incubated at room temperature for 2.5 h. […] 200 uL of the supernatant solution was then removed for scintillation counting. Samples were counted to 2% or 10 minutes, whichever occurs first. […] Also, wells containing radioactivity but no cytosol were processed with charcoal to estimate unremovable DPM of [^3 H] […].
Counts per minute (CPM) of radioactivity were automatically converted to disintegrated per minute (DPM) by the Beckman LS 7500 Scintillation Counter using a set of quenched standards to generate a H# for each sample.
((DPM sample-DPM not removed by charcoal)/(DPM estradiol-DPM not removed by charcoal))×100%=% of estradiol binding
For the generation of IC50 curves, % binding is plotted vs compound. […] For a description of these methods, see Hulme, E. C., ed. […] Receptor-Ligand Interactions: A Practical Approach. IRL Press, New York (see especially chapter 8).

[3] = target: T1, estrogen receptor; assay: 2X VIT ERE Transfection (luciferase) Assay in CHO cells; format: cell-based; design: expressed in transfected cells; host or cells: Chinese Hamster Ovary (CHO) cells, stably transfected; details: for % Activation with 1 nM 17β-estradiol (luciferase): 1 uM compound + 1 nM 17β-estradiol, 24 h (antagonism); for activation at 1 µM: CHO, 24 h
Experimental: 2X VIT ERE Transfection Assay
as §1
Chinese Hamster Ovary cells (CHO) which had been stably transfected with the human estrogen receptor were maintained in DMEM+10% fetal bovine serum (FBS). 48 h prior to treatment the growth medium was replaced with DMEM lacking phenol red +10% dextran coated charcoal stripped FBS (treatment medium). Cells were plated at a density of 5000 cells/well in 96-well plates containing 200 μL of medium/well.
Calcium Phoshate Transfection
Reporter DNA (Promega plasmid pGL2 containing two tandem copies of the vitellogenin ERE in front of the minimal thymidine kinase promoter driving the luciferase gene) was combined with the B-galactosidase expression plasmid pCH110 (Pharmacia) and carrier DNA (pTZ18U) in the following ratio:
20 uL of this mixture was added to each well of cells and remained on the cells for 16 h. […] Each treatment condition was performed on 8 wells (n=8) which were incubated for 24 h prior to the luciferase assay.
After removing the PBS, 25 uL of Promega lysis buffer was added to each well and allowed to stand at room temperature for 15 min, followed by 15 min at -80° C. and 15 min at 37° C. 20 uL of lysate was transferred to an opaque 96 well plate for luciferase activity evaluation and the remaining lysate (5 uL) was used for the B-galactosidase activity evaluation (normalize transfection). The luciferan substrate (Promega) was added in 100 uL aliquots to each well automatically by the luminometer and the light produced (relative light units) was read 10 seconds after addition.
To the remaining 5 uL of lysate 45 uL of PBS was added. Then 50 uL of Promega B-galactosidase 2× assay buffer was added, mixed well and incubated at 37° C. for 1 hour. A plate containing a standard curve (0.1 to 1.5 milliunits in triplicate) was set up for each experimental run. The plates were analyzed on a Molecular Devices spectrophotometric plate reader at 410 nm. The optical densities for the unknown were converted to milliunits of activity by mathematical extrapolation from the standard curve.
The luciferase data was generated as relative light units (RLUs) accumulated during a 10 second measurement and automatically transferred to a JMP (SAS Inc) file where background RLUs were subtracted. The B-galactosidase values were automatically imported into the file and these values were divided into the RLUs to normalize the data. The mean and standard deviations were determined from a n=8 for each treatment. […] These techniques are described by Tzukerman, M. T., Esty, A., Santiso-Mere, D., Danielian, P., Parker, M. G., Stein, R. B., Pike, J. W. and McDonnel, D. P. (1994). Human estrogen receptor transactivational capacity was determined by both cellular and promoter context and mediated by two functionally distinct intramolecular regions (see Molecular Endocrinology, 8:21-30).

[4] = test system: uteri; assay: Rat Uterotrophic/Antiuterotrophic Bioassay (results headed 3-Day Ovariectomized Rat Model); format: in vivo, rat (Sprague-Dawley); details: 1 μG; Example 12 experiment, control = 31.4 mg
Experimental: Rat Uterotrophic/Antiuterotrophic Bioassay
Immature Sprague-Dawley rats (female, 18 days old) were tested in groups of six. […] On day 4 the animals were sacrificed by CO2 asphyxiation and their uteri were removed and stripped of excess lipid, any fluid removed and the wet weight determined. A small section of one horn was submitted for histology and the remainder used to isolate total RNA in order to evaluate complement component 3 gene expression.

Compound | % Activation (Compound ± 1 nM 17β-estradiol) (alkaline phosphatase) [1] | % Activation (alkaline phosphatase) [1] | Estrogen Receptor Affinity (RBA) [2] | % Activation with 1 nM 17β-estradiol (luciferase) [3] | activation at 1 µM [3] | uterine wet weight, 1 μG 17β-estradiol [4]
CCCCN(C)C(=O)/C=C/c1ccc(Cn2c(-c3ccc(O)cc3)c(C)c3cc(O)ccc32)cc1 [Example 12, (E)-N-Butyl. N'-methyl-3-{4-[5-hydroxy-2-(4-hydroxy-phenyl)-3-methyl-indol-1-ylmethyl]-phenyl}-acrylamide] | 16% | 7% | 114 | 24% | 13% | –
CCN(CC)C(=O)/C=C/c1ccc(Cn2c(-c3ccc(O)cc3)c(C)c3cc(O)ccc32)cc1 [Example 7, (E)-N,N-Diethyl-3-{4-[5-hydroxy-2-(4-hydroxy-phenyl)-3-methyl-indol-1-ylmethyl]-phenyl}-acrylamide] | 9% | 1% | 42 | 8% | 4% | –
CNC(=O)/C=C/c1ccc(Cn2c(-c3ccc(O)cc3)c(C)c3cc(O)ccc32)cc1 [Example 15, (E)-N,Methyl-3-{4-[5-hydroxy-2-(4-hydroxy-phenyl)-3-methyl-indol-1-ylmethyl]-phenyl}-acrylamide] | 5% | 0% | 53 | 31% | 15% | –
Cc1c(-c2ccc(O)cc2)n(Cc2ccc(/C=C/C(=O)N3CCOCC3)cc2)c2ccc(O)cc12 [Example 13] | 9% | 7% | – | 17% | 8% | –
Cc1c(-c2ccc(O)cc2)n(Cc2ccc(/C=C/C(=O)N(C)C)cc2)c2ccc(O)cc12 [Example 10, (E)-N,N-Dimethyl-3-{4-[5-hydroxy-2-(4-hydroxy-phenyl)-3-methyl-indol-1-ylmethyl]-phenyl}-acrylamide] | 19% | 6% | 20 | 2% | 1% | –
Cc1c(-c2ccc(O)cc2)n(Cc2ccc(/C=C/C(=O)N3CCCC3)cc2)c2ccc(O)cc12 [Example 9, (E)-Pyrrolidino-3-{4-[5-hydroxy-2-(4-hydroxy-phenyl)-3-methyl-indol-1-ylmethyl]-phenyl}-acrylamide] | 11% | 3% | – | 8% | 6% | –
Cc1c(-c2ccc(O)cc2)n(Cc2ccc(/C=C/C(N)=O)cc2)c2ccc(O)cc12 [Example 14, (E)-3-{4-[5-hydroxy-2-(4-hydroxy-phenyl)-3-methyl-indol-1-ylmethyl]-phenyl}-acrylamide] | 14% | 2% | 32 | 57% | 19% | –
C[C@]12CC[C@@H]3c4ccc(O)cc4CC[C@H]3[C@@H]1CC[C@@H]2O [17β-estradiol, reference compound] | – | – | – | – | – | 89.0 mg
Cc1c(-c2ccc(O)cc2)n(Cc2ccc(/C=C/C(=O)NC(C)(C)C)cc2)c2ccc(O)cc12 [Example 8, 1(E)-N-tert-butyl-3-{4-[5-hydroxy-2-(4-hydroxy-phenyl)-3-methyl-indol-1-ylmethyl]-phenyl}-acrylamide] | 22% | 10% | 40 | 78% | 6% | –
